Data published in US7820623B2 (priority 2006, dated 2010).
Read-outs that look alike come from different tables or passages of the source. Bridge positions count the residues as written; N and C are the ends. Square brackets hold non-standard residues; d marks the D form. Peptide text beside a SMILES is read from it. 1Nal = N[C@@H](Cc1cccc2ccccc12)C(=O)O

Columns and labels:
[1] = system: thapsigargin-induced IFN-g production in human whole blood; type: cell-based
[2] = system: thapsigargin-induced IL-2 production in human whole blood
[3] = read-out: Analogue Activity (IC50) WB/IFNg
[4] = read-out: Analogue Activity (IC50) WB/IL-2

Molecule	IC50 [1, 3] [nM]	IC50 [2, 4] [nM]	IC50 ([1]; read-out: Average IC50 IFNg) [nM]	IC50 ([2]; read-out: Average IC50 IL-2) [nM]
CC[C@H](C)[C@@H]1NC(=O)[C@H](CCCCN)NC(=O)[C@@H](NC(=O)[C@H](CCCCN)NC(=O)[C@@H](NC(=O)[C@H](CC(N)=O)NC(=O)[C@@H](NC(=O)[C@@H](NC(=O)[C@@H](NC(=O)CN)C(C)C)[C@@H](C)CC)[C@@H](C)CC)C(C)C)CSSC[C@@H]2NC(=O)[C@H](CCCCN)NC(=O)CNC(=O)[C@H](Cc3ccccc3)NC(=O)[C@H](CCCNC(=N)N)NC(=O)[C@H](CCSC)NC(=O)CNC(=O)[C@H](C)NC(=O)[C@H](CCCNC(=N)N)NC(=O)[C@H](CCCCN)NC(=O)[C@@H]3CSSC[C@@H](C(=O)N[C@H](C(=O)N4CCC[C@H]4C(=O)N[C@@H](CCCCN)C(=O)O)[C@@H](C)O)NC(=O)[C@H](Cc4c[nH]cn4)NC(=O)[C@H](CSSC[C@H](NC(=O)[C@H](CCC(N)=O)NC(=O)[C@H](CCCNC(=N)N)NC(=O)[C@H](CO)NC1=O)C(=O)N[C@@H](CC(C)C)C(=O)N[C@@H](CCC(=O)O)C(=O)N1CCC[C@H]1C(=O)N3)NC(=O)[C@H](CCCCN)NC(=O)CNC(=O)[C@H](CC(N)=O)NC(=O)[C@H](CCSC)NC2=O [K20R] (H-GVIINVKCKISRQCLEPCKRAGMRFGKCMNGKCHCTPK-OH; disulfide 8-28, 14-33, 18-35)	0.083	0.067		
CC[C@H](C)[C@@H]1NC(=O)[C@H](CCCCN)NC(=O)[C@@H](NC(=O)[C@H](CCCCN)NC(=O)[C@@H](NC(=O)[C@H](CC(N)=O)NC(=O)[C@@H](NC(=O)[C@@H](NC(=O)[C@H](CCC(=O)O)NC(=O)CN)[C@@H](C)CC)[C@@H](C)CC)C(C)C)CSSC[C@@H]2NC(=O)[C@H](CCCCN)NC(=O)CNC(=O)[C@H](Cc3ccccc3)NC(=O)[C@H](CCCNC(=N)N)NC(=O)[C@H](CCSC)NC(=O)CNC(=O)[C@H](C)NC(=O)[C@H](CCCCN)NC(=O)[C@H](CCCCN)NC(=O)[C@@H]3CSSC[C@@H](C(=O)N[C@H](C(=O)N4CCC[C@H]4C(=O)N[C@@H](CCCCN)C(=O)O)[C@@H](C)O)NC(=O)[C@H](Cc4c[nH]cn4)NC(=O)[C@H](CSSC[C@H](NC(=O)[C@H](CCC(N)=O)NC(=O)[C@H](CCCNC(=N)N)NC(=O)[C@H](CO)NC1=O)C(=O)N[C@@H](CC(C)C)C(=O)N[C@@H](CCC(=O)O)C(=O)N1CCC[C@H]1C(=O)N3)NC(=O)[C@H](CCCCN)NC(=O)CNC(=O)[C@H](CC(N)=O)NC(=O)[C@H](CCSC)NC2=O [V2E] (H-GEIINVKCKISRQCLEPCKKAGMRFGKCMNGKCHCTPK-OH; disulfide 8-28, 14-33, 18-35)	0.184	0.097		
CC[C@H](C)[C@@H]1NC(=O)[C@H](CCCCN)NC(=O)[C@@H](NC(=O)[C@H](CCCCN)NC(=O)[C@@H](NC(=O)[C@H](CC(N)=O)NC(=O)[C@@H](NC(=O)[C@@H](NC(=O)[C@@H](NC(=O)CN)C(C)C)[C@@H](C)CC)[C@@H](C)CC)C(C)C)CSSC[C@@H]2NC(=O)[C@H](CCCCN)NC(=O)[C@H](Cc3cccc4ccccc34)NC(=O)[C@H](Cc3ccccc3)NC(=O)[C@H](CCCNC(=N)N)NC(=O)[C@H](CCSC)NC(=O)CNC(=O)[C@H](C)NC(=O)[C@H](CCCCN)NC(=O)[C@H](CCCCN)NC(=O)[C@@H]3CSSC[C@@H](C(=O)N[C@H](C(=O)N4CCC[C@H]4C(=O)N[C@@H](CCCCN)C(=O)O)[C@@H](C)O)NC(=O)[C@H](Cc4c[nH]cn4)NC(=O)[C@H](CSSC[C@H](NC(=O)[C@H](CCC(N)=O)NC(=O)[C@H](CCCNC(=N)N)NC(=O)[C@H](CO)NC1=O)C(=O)N[C@@H](CC(C)C)C(=O)N[C@@H](CCC(=O)O)C(=O)N1CCC[C@H]1C(=O)N3)NC(=O)[C@H](CCCCN)NC(=O)CNC(=O)[C@H](CC(N)=O)NC(=O)[C@H](CCSC)NC2=O [G26Nal] (H-GVIINVKCKISRQCLEPCKKAGMRF[1Nal]KCMNGKCHCTPK-OH; disulfide 8-28, 14-33, 18-35)	10.7	9.9		
CC[C@H](C)[C@@H]1NC(=O)[C@H](CCCCN)NC(=O)[C@@H](NC(=O)[C@H](CCCCN)NC(=O)[C@@H](NC(=O)[C@H](CC(N)=O)NC(=O)[C@@H](NC(=O)[C@@H](NC(=O)[C@@H](NC(=O)CN)C(C)C)[C@@H](C)CC)[C@@H](C)CC)C(C)C)CSSC[C@@H]2NC(=O)[C@H](CCCCN)NC(=O)[C@H](C)NC(=O)[C@H](Cc3ccccc3)NC(=O)[C@H](CCCNC(=N)N)NC(=O)[C@H](CCSC)NC(=O)CNC(=O)[C@H](C)NC(=O)[C@H](CCCCN)NC(=O)[C@H](CCCCN)NC(=O)[C@@H]3CSSC[C@@H](C(=O)N[C@H](C(=O)N4CCC[C@H]4C(=O)N[C@@H](CCCCN)C(=O)O)[C@@H](C)O)NC(=O)[C@H](Cc4c[nH]cn4)NC(=O)[C@H](CSSC[C@H](NC(=O)[C@H](CCC(N)=O)NC(=O)[C@H](CCCNC(=N)N)NC(=O)[C@H](CO)NC1=O)C(=O)N[C@@H](CC(C)C)C(=O)N[C@@H](CCC(=O)O)C(=O)N1CCC[C@H]1C(=O)N3)NC(=O)[C@H](CCCCN)NC(=O)CNC(=O)[C@H](CC(N)=O)NC(=O)[C@H](CCSC)NC2=O [G26A] (H-GVIINVKCKISRQCLEPCKKAGMRFAKCMNGKCHCTPK-OH; disulfide 8-28, 14-33, 18-35)	10.7	12.1		
CC[C@H](C)[C@@H]1NC(=O)[C@H](CCCCN)NC(=O)[C@@H](NC(=O)[C@H](CCCCN)NC(=O)[C@@H](NC(=O)[C@H](CC(N)=O)NC(=O)[C@@H](NC(=O)[C@@H](NC(=O)[C@@H](NC(=O)CN)C(C)C)[C@@H](C)CC)[C@@H](C)CC)C(C)C)CSSC[C@@H]2NC(=O)[C@H](CCCCN)NC(=O)CNC(=O)[C@H](Cc3ccccc3)NC(=O)[C@H](CCCNC(=N)N)NC(=O)[C@H](CCSC)NC(=O)[C@H](CCCNC(=N)N)NC(=O)[C@H](C)NC(=O)[C@H](CCCCN)NC(=O)[C@H](CCCCN)NC(=O)[C@@H]3CSSC[C@@H](C(=O)N[C@H](C(=O)N4CCC[C@H]4C(=O)N[C@@H](CCCCN)C(=O)O)[C@@H](C)O)NC(=O)[C@H](Cc4c[nH]cn4)NC(=O)[C@H](CSSC[C@H](NC(=O)[C@H](CCC(N)=O)NC(=O)[C@H](CCCNC(=N)N)NC(=O)[C@H](CO)NC1=O)C(=O)N[C@@H](CC(C)C)C(=O)N[C@@H](CCC(=O)O)C(=O)N1CCC[C@H]1C(=O)N3)NC(=O)[C@H](CCCCN)NC(=O)CNC(=O)[C@H](CC(N)=O)NC(=O)[C@H](CCSC)NC2=O [G22R] (H-GVIINVKCKISRQCLEPCKKARMRFGKCMNGKCHCTPK-OH; disulfide 8-28, 14-33, 18-35)	0.349	0.292		
GVIINVKCKISRQCLEACKKAGMRFGKCMNGKCHCTPK [Ala-17 (SEQ ID No: 1414)]			0.173	0.173
CC[C@H](C)[C@@H]1NC(=O)[C@H](CCCCN)NC(=O)[C@@H](NC(=O)[C@H](CCCCN)NC(=O)[C@@H](NC(=O)[C@H](CC(N)=O)NC(=O)[C@@H](NC(=O)[C@@H](NC(=O)[C@@H](NC(=O)CN)C(C)C)[C@@H](C)CC)[C@@H](C)CC)C(C)C)CSSC[C@@H]2NC(=O)[C@H](CCCCN)NC(=O)CNC(=O)[C@H](Cc3ccccc3)NC(=O)[C@H](CCCNC(=N)N)NC(=O)[C@H](CCSC)NC(=O)CNC(=O)[C@H](C)NC(=O)[C@H](CCCCN)NC(=O)[C@H](CCCCN)NC(=O)[C@@H]3CSSC[C@@H](C(=O)N[C@H](C(=O)N[C@@H](CCCNC(=N)N)C(=O)N[C@@H](CCCCN)C(=O)O)[C@@H](C)O)NC(=O)[C@H](Cc4c[nH]cn4)NC(=O)[C@H](CSSC[C@H](NC(=O)[C@H](CCC(N)=O)NC(=O)[C@H](CCCNC(=N)N)NC(=O)[C@H](CO)NC1=O)C(=O)N[C@@H](CC(C)C)C(=O)N[C@@H](CCC(=O)O)C(=O)N1CCC[C@H]1C(=O)N3)NC(=O)[C@H](CCCCN)NC(=O)CNC(=O)[C@H](CC(N)=O)NC(=O)[C@H](CCSC)NC2=O [P37R] (H-GVIINVKCKISRQCLEPCKKAGMRFGKCMNGKCHCTRK-OH; disulfide 8-28, 14-33, 18-35)	0.253	0.229		
GVIINVKCKISRQCLEPCKKAGMRAGKCMNGKCHCTPK [Ala-25 (SEQ ID No: 1421)]			3.08	3.08
CC[C@H](C)[C@@H]1NC(=O)[C@H](CCCCN)NC(=O)[C@@H](NC(=O)[C@H](CCCCN)NC(=O)[C@@H](NC(=O)[C@H](CC(N)=O)NC(=O)[C@@H](NC(=O)[C@@H](NC(=O)[C@@H](NC(=O)CN)C(C)C)[C@@H](C)CC)[C@@H](C)CC)C(C)C)CSSC[C@@H]2NC(=O)[C@H](Cc3cccc4ccccc34)NC(=O)CNC(=O)[C@H](Cc3ccccc3)NC(=O)[C@H](CCCNC(=N)N)NC(=O)[C@H](CCSC)NC(=O)CNC(=O)[C@H](C)NC(=O)[C@H](CCCCN)NC(=O)[C@H](CCCCN)NC(=O)[C@@H]3CSSC[C@@H](C(=O)N[C@H](C(=O)N4CCC[C@H]4C(=O)N[C@@H](CCCCN)C(=O)O)[C@@H](C)O)NC(=O)[C@H](Cc4c[nH]cn4)NC(=O)[C@H](CSSC[C@H](NC(=O)[C@H](CCC(N)=O)NC(=O)[C@H](CCCNC(=N)N)NC(=O)[C@H](CO)NC1=O)C(=O)N[C@@H](CC(C)C)C(=O)N[C@@H](CCC(=O)O)C(=O)N1CCC[C@H]1C(=O)N3)NC(=O)[C@H](CCCCN)NC(=O)CNC(=O)[C@H](CC(N)=O)NC(=O)[C@H](CCSC)NC2=O [K27Nal] (H-GVIINVKCKISRQCLEPCKKAGMRFG[1Nal]CMNGKCHCTPK-OH; disulfide 8-28, 14-33, 18-35)	27	15		
CC[C@H](C)[C@@H]1NC(=O)[C@H](CCCCN)NC(=O)[C@@H](NC(=O)[C@H](C)NC(=O)[C@@H](NC(=O)[C@H](CC(N)=O)NC(=O)[C@@H](NC(=O)[C@@H](NC(=O)[C@@H](NC(=O)CN)C(C)C)[C@@H](C)CC)[C@@H](C)CC)C(C)C)CSSC[C@@H]2NC(=O)[C@H](CCCCN)NC(=O)CNC(=O)[C@H](Cc3ccccc3)NC(=O)[C@H](CCCNC(=N)N)NC(=O)[C@H](CCSC)NC(=O)CNC(=O)[C@H](C)NC(=O)[C@H](CCCCN)NC(=O)[C@H](CCCCN)NC(=O)[C@@H]3CSSC[C@@H](C(=O)N[C@H](C(=O)N4CCC[C@H]4C(=O)N[C@@H](CCCCN)C(=O)O)[C@@H](C)O)NC(=O)[C@H](Cc4c[nH]cn4)NC(=O)[C@H](CSSC[C@H](NC(=O)[C@H](CCC(N)=O)NC(=O)[C@H](CCCNC(=N)N)NC(=O)[C@H](CO)NC1=O)C(=O)N[C@@H](CC(C)C)C(=O)N[C@@H](CCC(=O)O)C(=O)N1CCC[C@H]1C(=O)N3)NC(=O)[C@H](CCCCN)NC(=O)CNC(=O)[C@H](CC(N)=O)NC(=O)[C@H](CCSC)NC2=O [K7A] (H-GVIINVACKISRQCLEPCKKAGMRFGKCMNGKCHCTPK-OH; disulfide 8-28, 14-33, 18-35)	0.0591	0.0675		
GVIINVKCKISRQCLEPCKAAGMRFGKCMNGKCHCTPK [Ala-20 (SEQ ID No: 1416)]			0.379	0.379
